Source: PMC12474259, “ITF6475, a New Histone Deacetylase 6 Inhibitor, Prevents Painful Neuropathy Induced by Paclitaxel” (Toxics, 2025)
Like-named read-outs stand apart in the source and are kept apart here.

Key:
[1] = Pharmacokinetic assessment in mouse plasma (LC-MS/MS); format: in vivo; conditions: for Cmax / AUC(0-t): oral; for AUC(0-t): read-out: AUC0–8h
Experimental: For the determination of ITF6475 in mouse plasma (n. 3 mice/group), aliquots of 20 µL of samples were deproteinized by adding 300 µL of acetonitrile. After centrifugation, 100 µL of the supernatant was collected from each sample and allowed to dry in a nitrogen flow at 35 °C. The residue was then reconstituted in 150 µL of the mixture in 90% water/10% acetonitrile and 0.1% formic acid.
Quantification of ITF6475 in the samples was carried out on a calibration curve in the range 1–1000 ng/mL. Quantification of Ricolinostat in mouse plasma was carried out on aliquots of 20 µL and deproteinized with 200 µL of acetonitrile. Aliquots of 100 µL of the supernatant were collected and diluted with 100 µL of the mixture in 90% water/10% acetonitrile and 0.1% formic acid. The calibration curve range was 1–1000 ng/mL.
Samples were analyzed in an LC-MS/MS system, constituted by a Prominence Shimadzu HPLC (Shimadzu Italia S.r.l., Milano, Italy) and an API6500+ triple quadrupole mass spectrometer equipped with TurboIonSpray (Sciex, Milano, Italy). Analyses were carried out in a positive mode. The system was managed through the software Analyst 1.7.2 (Sciex, Milano, Italy).

C57BL/6 female mice [2] = assay: General toxicity: mortality, health, body weight, histopathology; format: in vivo; conditions: for mortality: ITF6475 all doses p.o. daily
Experimental: In the days of co-treatment, ricolinostat and all doses of ITF were administered 4 h before PTX. The animals were housed in a certified and limited-access facility with controlled temperature (22 °C ± 2) and humidity (50% ± 20) and an artificial 12 h:12 h light cycle from 7 a.m. to 7 p.m. Mice were monitored daily to evaluate the mortality and their health, and body weight was measured twice a week during the treatment period in order to monitor general conditions and to adjust the dose.
(§1) At baseline and at the end of treatment, neurophysiological evaluations and dynamic tests were performed (Figure 1). Baseline neurophysiological results were used to randomize the animals into the 6 groups to ensure homogeneity. At the end of treatment, the animals were sacrificed by isoflurane overdose, caudal nerves, liver, spleen, thymus, kidneys, and sternum were used for histopathological analysis, and skin biopsies for intraepidermal nerve fiber (IENF) density analysis were collected. At the end of the study, blood was collected from the tail vein under isoflurane anesthesia into 1.5 mL Eppendorf tubes, centrifuged at 3500× g for 10 min at 4 °C, and then serum was transferred into a new tube and stored at –80 °C until examined for neurofilament light (NfL) level analysis.
Liver, spleen, thymus, kidneys, and sternum were collected and fixed in 10% buffered formalin at room temperature for 4 days. After fixation, the sternum was decalcified for 48 h at room temperature in 10% buffered EDTA. After trimming, these samples were paraffin-embedded, cut into 3 µm thick sections, stained with hematoxylin–eosin, and examined with an Olympus BX51 light microscope (Olympus, Segrate, Italy).

C57BL/6 female mice [3] = format: in vivo; conditions: PTX + ricolinostat 50 mg/kg p.o. daily
Experimental: (§2) C57BL/6 female mice (Inotiv, Udine, Italy) were used and randomized into six different groups (19 mice/group): one group was treated with PTX vehicle i.v., 1 time/week for 4 weeks and methocel 0.5% os, daily (VEH group); a second group was treated with PTX, i.v., 70 mg/kg 1 time/week for 4 weeks (PTX group); and the other four groups were treated with PTX, i.v., 70 mg/kg 1 time/week for 4 weeks and co-treated with ricolinostat, p.o., 50 mg/kg daily (PTX + ACY group), or with ITF6475, p.o., 1–6–12.5 mg/kg daily, p.o., (PTX + ITF1, PTX + ITF6, PTX + ITF12.5 groups), respectively (Figure 1). In the days of co-treatment, ricolinostat and all doses of ITF were administered 4 h before PTX. […] Mice were monitored daily to evaluate the mortality and their health, and body weight was measured twice a week during the treatment period in order to monitor general conditions and to adjust the dose.
The onset of PIPN was assessed by evaluating the sensory nerve conduction velocity (NCV) and nerve action potential amplitude (SNAP) of caudal and digital nerves using the electromyography apparatus (Matrix Light, Micromed, Treviso, Italy). […] Latencies were measured from stimulus onset, and peak-to-peak amplitudes were calculated. The NCV was calculated considering the measured distance between the recording and the stimulating negative electrode divided by the latency. […]

C57BL/6 female mice [4] = format: in vivo; conditions: end of treatment, PTX + ACY 50 mg/kg p.o. daily, p < 0.01
Experimental: as §2
To evaluate the IENF density, glabrous skin punches from the plantar hind paw were fixed in paraformaldehyde-lysine and periodate sodium (PLP) 2%, cryoprotected and serially cut in 20 μm thick sections. […] The total number of PGP 9.5-positive IENF crossing the dermal-epidermal junction was counted by a blinded examiner (ACh) under a light microscope at 40× magnification (Nexcope Ne920 AUTO light microscope, TiEsseLab Srl, Milano, Italy). […]

[5] = tested on: neurofilament light (NfL); assay: Serum neurofilament light (NfL) analysis in PIPN model; format: in vivo, mouse; conditions: end of treatment
Experimental: as §1
Serum NfL concentrations were measured using an automated chemiluminescent enzyme immunoassay instrument LUMIPULSE G600 (LUMIPULSE G NfL Blood kit, Fujirebio, Pomezia, Italy). The concentration was expressed in pg/mL [27, 30, 31].

[6] = general statement on hydroxamic acids, no reference given; cited from earlier work
C57BL/6 female mice [7] = assay: Neuropathology, morphological analysis of caudal nerves; format: in vivo, mouse; conditions: end of treatment, PTX alone or in combination
Experimental: Caudal nerves were isolated for morphological analysis and processed as previously described, separating the proximal and the distal portions to obtain a better evaluation of the distal-to-proximal extension of the damage. Briefly, the caudal and sciatic nerves were immersion-fixed in 3% glutaraldehyde and were subsequently osmicated, dehydrated, and embedded in epoxy resin. Semithin sections of 1.5 μm thickness were prepared from at least three tissue blocks for each animal, stained with toluidine blue, and examined with a Nexcope Ne920 AUTO light microscope (TiEsseLab Srl, Milano, Italy).

[8] = 4 weeks, PTX 70 mg/kg i.v. 1 time/week, ricolinostat 50 mg/kg p.o. daily

SMILES	AUC increase with dosage [1]	Cmax ([1]; 25 mg/kg, dose 25 mpk) [ng/mL]	AUC(0-t) ([1]; 25 mg/kg, dose 25 mpk) [ng·h/mL]	Cmax ([1]; 100 mg/kg, dose 100 mpk) [ng/mL]	AUC(0-t) ([1]; 100 mg/kg, dose 100 mpk) [ng·h/mL]	Cmax ([1]; 200 mg/kg, dose 200 mpk) [ng/mL]	AUC(0-t) ([1]; 200 mg/kg, dose 200 mpk) [ng·h/mL]	tolerability (C57BL/6 female mice [2]; 4 weeks, PTX 70 mg/kg i.v. 1 time/week, ricolinostat 50 mg/kg p.o. daily, ITF6475 1–6–12.5 mg/kg p.o. daily (all doses))	mortality (C57BL/6 female mice [2]; [8])	body weight vs. VEH (C57BL/6 female mice [2]; PTX alone or in combination with ricolinostat 50 mg/kg or all doses of ITF)	relevant toxicity (C57BL/6 female mice [2]; co-treated mice, ricolinostat 50 mg/kg or ITF6475 1–12.5 mg/kg p.o. daily with PTX)	histopathology of thymus and spleen (C57BL/6 female mice [2]; end of treatment, PTX alone or in combination with ricolinostat or ITF6475)	protection of PTX-induced reduction in digital nerve SNAP (C57BL/6 female mice [3])	IENF density vs. VEH (C57BL/6 female mice [4])	serum NfL vs. VEH ([5]; PTX + ACY 50 mg/kg p.o. daily, p < 0.05)	protein binding (in words) [6]	mice with mild, diffuse hepatic lipidosis (C57BL/6 female mice [2]; female, C57BL/6, mouse, in vivo, 4 weeks)	serum NfL vs. VEH ([5]; PTX 70 mg/kg i.v. alone, p < 0.001)	morphology of distal caudal nerves (C57BL/6 female mice [7])	morphology of proximal caudal nerves (C57BL/6 female mice [7])
O=C(CCCCCCNC(=O)c1cnc(N(c2ccccc2)c2ccccc2)nc1)NO [ricolinostat]	increase non-linearly at doses above 25 mg/kg	33.7	124	29.8	171	33.9	234	well tolerated	no mortality was observed	statistically significant increase in body weight	no evidence of relevant toxicity	thymic and splenic hypoplasia associated with reactive extramedullary ectopic hematopoiesis	significant protection of reduction in digital nerve SNAP	statistically significant reduction	statistically significant difference	not heavily protein-bound				
CC(=O)O[C@H]1C(=O)[C@@]2(C)[C@H]([C@H](OC(=O)c3ccccc3)[C@]3(O)C[C@H](OC(=O)[C@H](O)[C@@H](NC(=O)c4ccccc4)c4ccccc4)C(C)=C1C3(C)C)[C@]1(OC(C)=O)CO[C@@H]1C[C@@H]2O [PTX, paclitaxel]									no mortality was observed								approximately 25%	statistically significant difference	even more severe axonopathy	severe axonopathy with numerous degenerated fibers
